Laboratory results published in ChEMBL document CHEMBL1201862, “PubChem BioAssay data set” (2004).
Activity calls are given as the source filed them.

Assays:
[1] = target: T1, Voltage-gated N-type calcium channel alpha-1B subunit/Amyloid beta A4 precursor protein-binding family A member 1 (Homo sapiens, UniProt Q00975+Q02410); type: protein assay
[2] = target: T2, Tyrosine-protein phosphatase non-receptor type 7 (Homo sapiens, UniProt P35236); test: redox-active compounds inhibiting HePTP phosphatase – biochemical, fluorescence, mechanism study (AID 2068); type: functional
T2 sequence (P35236 whole entry): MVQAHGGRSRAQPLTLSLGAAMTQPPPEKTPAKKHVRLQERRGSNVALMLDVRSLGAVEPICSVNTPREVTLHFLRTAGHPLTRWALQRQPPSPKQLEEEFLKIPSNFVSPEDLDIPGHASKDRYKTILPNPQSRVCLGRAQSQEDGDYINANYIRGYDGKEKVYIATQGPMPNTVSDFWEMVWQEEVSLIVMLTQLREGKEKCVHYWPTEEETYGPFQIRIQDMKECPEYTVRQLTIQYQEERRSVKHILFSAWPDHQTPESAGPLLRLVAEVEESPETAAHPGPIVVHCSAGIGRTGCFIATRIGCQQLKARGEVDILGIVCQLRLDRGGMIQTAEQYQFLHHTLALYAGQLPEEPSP

NS3 = NS3 (Hepatitis C virus, UniProt A3EZJ3); test: PubChem AID 2173; parameters: species or system Hepacivirus hominis
Estrogen receptor beta = Estrogen receptor beta (Homo sapiens, UniProt Q92731); test: blockers of SRC-3 recruitment to ERβ – biochemical, ELISA, streptavidin-HRP readout, orthogonal assay, confirmation (AID 1060)
[3] = target: T1, Voltage-gated N-type calcium channel alpha-1B subunit/Amyloid beta A4 precursor protein-binding family A member 1; test: disruptors of Mint-PDZ/N-type channel peptide interaction – biochemical, HTRF, SAR follow-up (AID 2489); type: functional
[4] = target: T1, Voltage-gated N-type calcium channel alpha-1B subunit/Amyloid beta A4 precursor protein-binding family A member 1; type: protein assay; remark: listed apart in the source
[5] = target: Cystic fibrosis transmembrane conductance regulator/Golgi-associated PDZ and coiled-coil motif-containing protein (Homo sapiens, UniProt P13569+Q9HD26); test: potency against CAL PDZ-peptide interaction – biochemical, fluorescence polarization, Cerulean-tagged CAL PDZ, cherry-picks, dose response (AID 504773)
Integrin alpha-4 = Integrin alpha-4 (Homo sapiens, UniProt P13612); test: allosteric modulators of alpha4 integrin VLA-4 – cell-based, LIBS antibody binding, flow cytometry, SAR follow-up (AID 488791); type: functional
[6] = target: NACHT, LRR and PYD domains-containing protein 3 (Homo sapiens, UniProt Q96P20); test: NALP3 inhibitors in yeast, dose response, luminescent (AID 488799); type: functional
H4 = test: Luminescence Cell-Based Dose Response HTS to Identify Activators of 5'UTR Stem-Loop Driven Prion Protein mRNA Translation in H4 Neuroglioblastoma Cells. [Related pubchem assays: 1829 (Project Summary), 1814 (Primary HTS)]; type: functional; settings: Homo sapiens
[7] = Luminescence Cell-Based Dose Response HTS to Identify Activators of Luciferase Translation or Activity in H4-C Neuroglioblastoma Cells. [Related pubchem assays: 1829 (Project Summary), 1814 (Primary HTS)]; type: functional
[8] = Luminescence Cell-Based Dose Retest to Confirm Activators of 5'UTR Stem-Loop Driven Alpha-Synuclein mRNA Translation in H4 Neuroglioblastoma Cells. [Related pubchem assays (depositor defined):AID1813, AID1829]; type: functional
[9] = Luminescence Cell-Based Dose Response HTS to Identify Activators of 5'UTR Stem-Loop Driven Prion Protein mRNA Translation in H4-C Neuroglioblastoma Cells. [Related pubchem assays: 1829 (Project Summary), 1814 (Primary HTS)]; type: functional
[10] = Luminescence Cell-Based Dose Response HTS to Identify Activators of Luciferase Translation or Activity in H4 […] Cells. [Related pubchem assays: 1829 (Project Summary), 1814 (Primary HTS)]; type: functional
[11] = Luminescence Cell-Based Dose Confirmation HTS to Identify Activators of 5'UTR Stem-Loop Driven Alpha-Synuclein mRNA Translation in H4 Neuroglioblastoma Cells. [Related pubchem assays: 1829 (Project Summary), 1814 (Primary HTS)]; type: functional
[12] = target: T3, Mannose-6-phosphate isomerase (Homo sapiens, UniProt P34949); test: phosphomannose isomerase inhibition – biochemical, fluorescence intensity, confirmation (AID 1535)
T3 sequence (P34949 whole entry): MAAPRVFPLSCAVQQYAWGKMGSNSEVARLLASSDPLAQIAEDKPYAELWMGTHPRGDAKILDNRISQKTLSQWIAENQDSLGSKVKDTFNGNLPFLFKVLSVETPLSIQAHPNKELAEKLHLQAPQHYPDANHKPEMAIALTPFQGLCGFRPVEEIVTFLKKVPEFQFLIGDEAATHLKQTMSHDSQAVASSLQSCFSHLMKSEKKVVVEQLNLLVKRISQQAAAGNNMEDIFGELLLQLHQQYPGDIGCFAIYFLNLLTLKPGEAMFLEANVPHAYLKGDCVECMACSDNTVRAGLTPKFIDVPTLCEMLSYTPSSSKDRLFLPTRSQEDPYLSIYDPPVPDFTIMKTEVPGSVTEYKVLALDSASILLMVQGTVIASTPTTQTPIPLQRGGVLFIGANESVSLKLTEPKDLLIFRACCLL

[13] = target: T3, Mannose-6-phosphate isomerase; test: Confirmation of compounds inhibiting phosphomannose isomerase (PMI) via a fluorescence intensity assay using a high concentration of mannose 6-phosphate. [Related pubchem assays (depositor defined):AID1209, AID1220, AID1545, AID1553, AID1620]
Phosphomannomutase 2 = Phosphomannomutase 2 (Homo sapiens, UniProt O15305); test: Counter screen SAR assay for PMM2 inhibitors via a fluorescence intensity assay. [Related pubchem assays (depositor defined):AID1545, AID1574]
Troponin, cardiac muscle = Troponin, cardiac muscle (Homo sapiens, UniProt P19429+P45379+P63316); test: Fluorescence-based biochemical high throughput dose response assay for activators of the calcium sensitivity of cardiac Regulated Thin Filaments (RTF). [Related pubchem assays (depositor defined):AID493008, AID493018, AID504382, AID504383]; type: protein-complex assay
[14] = target: G-protein coupled receptor 35 (Homo sapiens, UniProt Q9HC97); test: inhibition of zaprinast-stimulated GPR35 beta-arrestin translocation – imaging, U2OS, beta-arrestin-GFP, zaprinast agonist, primary screen (AID 2058); type: functional;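 further: antagonist potency meaning inhibition of agonist-induced arrestin redistribution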

T1 sequence (Q00975 whole entry): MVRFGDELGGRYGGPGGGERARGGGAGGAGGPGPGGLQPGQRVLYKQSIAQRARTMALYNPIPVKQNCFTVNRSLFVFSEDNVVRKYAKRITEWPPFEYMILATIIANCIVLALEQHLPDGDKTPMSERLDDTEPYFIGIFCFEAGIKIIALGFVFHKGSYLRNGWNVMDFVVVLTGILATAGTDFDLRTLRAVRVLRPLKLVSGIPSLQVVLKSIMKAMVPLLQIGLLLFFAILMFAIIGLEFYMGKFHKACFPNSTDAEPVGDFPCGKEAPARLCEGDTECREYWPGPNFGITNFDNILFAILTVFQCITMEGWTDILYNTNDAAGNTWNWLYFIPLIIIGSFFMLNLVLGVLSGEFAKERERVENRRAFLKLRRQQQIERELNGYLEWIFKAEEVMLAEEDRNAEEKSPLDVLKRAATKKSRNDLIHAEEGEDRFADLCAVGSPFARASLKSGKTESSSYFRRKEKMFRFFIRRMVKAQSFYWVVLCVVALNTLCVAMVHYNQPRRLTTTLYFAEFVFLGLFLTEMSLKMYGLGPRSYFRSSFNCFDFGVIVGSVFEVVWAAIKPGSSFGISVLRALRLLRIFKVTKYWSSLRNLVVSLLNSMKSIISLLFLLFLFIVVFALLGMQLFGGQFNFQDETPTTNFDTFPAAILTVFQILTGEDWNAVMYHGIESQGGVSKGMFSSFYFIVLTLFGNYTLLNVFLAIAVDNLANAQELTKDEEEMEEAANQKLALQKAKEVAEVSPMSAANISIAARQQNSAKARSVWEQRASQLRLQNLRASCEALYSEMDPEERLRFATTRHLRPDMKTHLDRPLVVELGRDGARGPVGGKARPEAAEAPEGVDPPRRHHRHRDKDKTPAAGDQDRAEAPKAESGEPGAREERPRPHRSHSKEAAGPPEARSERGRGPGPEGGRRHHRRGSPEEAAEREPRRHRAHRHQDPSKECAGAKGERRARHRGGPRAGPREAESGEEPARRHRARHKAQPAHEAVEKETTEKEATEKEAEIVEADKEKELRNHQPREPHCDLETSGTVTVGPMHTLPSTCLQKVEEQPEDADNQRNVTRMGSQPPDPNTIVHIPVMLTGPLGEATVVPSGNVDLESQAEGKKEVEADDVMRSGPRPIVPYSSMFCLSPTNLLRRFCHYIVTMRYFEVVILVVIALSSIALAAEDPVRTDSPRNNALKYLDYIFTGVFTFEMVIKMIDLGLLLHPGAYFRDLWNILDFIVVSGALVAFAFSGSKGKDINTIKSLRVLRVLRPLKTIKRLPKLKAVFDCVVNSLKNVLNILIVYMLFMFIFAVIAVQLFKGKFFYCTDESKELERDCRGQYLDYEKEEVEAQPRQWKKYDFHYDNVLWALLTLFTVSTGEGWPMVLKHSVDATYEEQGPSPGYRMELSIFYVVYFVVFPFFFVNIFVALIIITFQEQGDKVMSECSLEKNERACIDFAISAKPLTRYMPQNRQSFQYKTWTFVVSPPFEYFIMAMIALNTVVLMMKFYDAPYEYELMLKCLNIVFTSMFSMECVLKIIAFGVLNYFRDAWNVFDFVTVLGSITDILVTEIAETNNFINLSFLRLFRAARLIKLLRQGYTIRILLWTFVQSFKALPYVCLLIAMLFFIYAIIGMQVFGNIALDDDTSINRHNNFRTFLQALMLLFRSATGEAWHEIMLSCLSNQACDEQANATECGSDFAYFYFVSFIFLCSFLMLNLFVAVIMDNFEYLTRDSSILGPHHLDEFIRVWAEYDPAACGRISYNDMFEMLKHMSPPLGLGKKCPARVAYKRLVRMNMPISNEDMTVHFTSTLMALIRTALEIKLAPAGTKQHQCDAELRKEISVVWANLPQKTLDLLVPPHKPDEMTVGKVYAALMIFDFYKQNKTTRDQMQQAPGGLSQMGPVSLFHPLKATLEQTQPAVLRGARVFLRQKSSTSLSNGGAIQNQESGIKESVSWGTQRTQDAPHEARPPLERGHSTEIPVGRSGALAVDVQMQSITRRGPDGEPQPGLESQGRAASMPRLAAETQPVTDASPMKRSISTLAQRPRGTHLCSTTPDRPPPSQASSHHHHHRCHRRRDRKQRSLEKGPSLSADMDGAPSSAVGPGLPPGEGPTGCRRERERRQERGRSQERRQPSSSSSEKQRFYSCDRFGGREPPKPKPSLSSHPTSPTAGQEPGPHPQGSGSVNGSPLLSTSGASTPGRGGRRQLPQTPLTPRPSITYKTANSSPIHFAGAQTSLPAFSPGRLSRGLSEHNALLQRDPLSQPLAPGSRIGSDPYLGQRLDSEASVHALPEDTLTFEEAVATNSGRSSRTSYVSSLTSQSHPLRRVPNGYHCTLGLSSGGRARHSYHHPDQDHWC
T1 sequence (Q02410 whole entry): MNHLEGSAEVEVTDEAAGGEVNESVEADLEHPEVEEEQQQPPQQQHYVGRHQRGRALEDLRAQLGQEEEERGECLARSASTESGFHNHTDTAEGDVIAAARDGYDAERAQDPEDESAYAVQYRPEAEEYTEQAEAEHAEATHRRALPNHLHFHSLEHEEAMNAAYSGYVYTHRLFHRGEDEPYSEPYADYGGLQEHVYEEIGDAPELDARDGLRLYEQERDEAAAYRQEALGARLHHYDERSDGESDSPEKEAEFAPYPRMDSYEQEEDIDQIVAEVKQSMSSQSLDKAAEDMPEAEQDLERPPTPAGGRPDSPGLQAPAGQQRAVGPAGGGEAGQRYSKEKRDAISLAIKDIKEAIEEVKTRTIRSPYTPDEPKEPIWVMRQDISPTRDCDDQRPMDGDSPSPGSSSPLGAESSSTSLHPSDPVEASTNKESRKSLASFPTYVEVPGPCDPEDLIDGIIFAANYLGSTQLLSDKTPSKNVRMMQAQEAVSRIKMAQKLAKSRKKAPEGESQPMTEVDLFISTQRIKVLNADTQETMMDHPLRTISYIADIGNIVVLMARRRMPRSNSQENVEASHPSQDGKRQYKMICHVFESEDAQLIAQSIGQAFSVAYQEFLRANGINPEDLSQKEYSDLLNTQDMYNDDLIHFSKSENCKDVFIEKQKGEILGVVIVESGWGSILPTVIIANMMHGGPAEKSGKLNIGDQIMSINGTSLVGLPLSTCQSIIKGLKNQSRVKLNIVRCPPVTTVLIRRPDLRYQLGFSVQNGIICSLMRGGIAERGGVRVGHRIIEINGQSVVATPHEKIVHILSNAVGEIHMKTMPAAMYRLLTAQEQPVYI
Chain of Cystic fibrosis transmembrane conductance regulator/Golgi-associated PDZ and coiled-coil motif-containing protein (P13569 whole entry, other chains not shown): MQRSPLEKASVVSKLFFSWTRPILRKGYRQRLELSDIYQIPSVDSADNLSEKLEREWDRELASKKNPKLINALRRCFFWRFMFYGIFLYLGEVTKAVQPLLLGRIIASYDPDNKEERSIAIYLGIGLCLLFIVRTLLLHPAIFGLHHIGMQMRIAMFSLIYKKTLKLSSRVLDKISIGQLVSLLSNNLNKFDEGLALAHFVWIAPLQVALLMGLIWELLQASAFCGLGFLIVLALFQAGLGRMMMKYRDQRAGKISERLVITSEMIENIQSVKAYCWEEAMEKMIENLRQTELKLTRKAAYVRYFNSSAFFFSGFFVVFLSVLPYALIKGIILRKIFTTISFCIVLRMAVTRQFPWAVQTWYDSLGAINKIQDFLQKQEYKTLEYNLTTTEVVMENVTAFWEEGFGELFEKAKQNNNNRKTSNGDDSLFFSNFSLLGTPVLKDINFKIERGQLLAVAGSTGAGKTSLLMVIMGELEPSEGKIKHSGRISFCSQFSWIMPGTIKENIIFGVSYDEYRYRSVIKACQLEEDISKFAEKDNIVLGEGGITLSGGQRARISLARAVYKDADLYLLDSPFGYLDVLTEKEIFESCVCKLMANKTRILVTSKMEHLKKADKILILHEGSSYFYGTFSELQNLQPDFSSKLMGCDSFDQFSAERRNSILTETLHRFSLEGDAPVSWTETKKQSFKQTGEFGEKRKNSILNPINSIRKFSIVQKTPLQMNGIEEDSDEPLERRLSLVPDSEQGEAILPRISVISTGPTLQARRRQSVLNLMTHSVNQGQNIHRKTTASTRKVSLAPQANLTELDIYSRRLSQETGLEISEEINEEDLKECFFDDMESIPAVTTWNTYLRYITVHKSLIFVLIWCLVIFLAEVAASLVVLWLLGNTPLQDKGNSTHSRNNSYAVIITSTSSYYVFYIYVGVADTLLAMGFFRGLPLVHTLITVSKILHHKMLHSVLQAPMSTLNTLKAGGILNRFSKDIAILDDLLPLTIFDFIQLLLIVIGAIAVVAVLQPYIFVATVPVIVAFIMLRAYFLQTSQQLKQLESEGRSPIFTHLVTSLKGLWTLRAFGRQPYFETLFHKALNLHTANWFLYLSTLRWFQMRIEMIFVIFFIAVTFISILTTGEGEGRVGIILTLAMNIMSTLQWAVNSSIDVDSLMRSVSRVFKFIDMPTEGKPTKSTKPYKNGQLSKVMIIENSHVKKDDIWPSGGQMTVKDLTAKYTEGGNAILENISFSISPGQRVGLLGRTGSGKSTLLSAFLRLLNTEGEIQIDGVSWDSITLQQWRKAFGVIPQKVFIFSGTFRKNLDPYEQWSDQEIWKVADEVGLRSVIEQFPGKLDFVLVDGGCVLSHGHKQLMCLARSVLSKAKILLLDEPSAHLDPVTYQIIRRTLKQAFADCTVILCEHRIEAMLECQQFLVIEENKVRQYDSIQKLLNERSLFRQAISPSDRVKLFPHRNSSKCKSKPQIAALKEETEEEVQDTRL
Chain of Phosphomannomutase 2 (O15305 whole entry): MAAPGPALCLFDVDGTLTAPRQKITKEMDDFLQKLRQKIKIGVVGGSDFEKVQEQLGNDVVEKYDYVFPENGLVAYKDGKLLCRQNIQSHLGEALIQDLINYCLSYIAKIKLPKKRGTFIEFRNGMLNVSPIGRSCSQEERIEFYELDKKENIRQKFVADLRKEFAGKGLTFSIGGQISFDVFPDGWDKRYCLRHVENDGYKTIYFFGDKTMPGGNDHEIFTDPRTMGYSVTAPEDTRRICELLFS

O=C(NC1CCCC1)c1ccc2nc(-c3ccco3)c(-c3ccco3)nc2c1
IC50 [1]: 26 µM (active) | IC50 [2]: 2.94 µM (active) | IC50 (NS3): 5.49 µM (active) | IC50 (Estrogen receptor beta): 0.478 µM (not active) | IC50 [3]: > 56.8 µM (inactive) | IC50 [4]: 2.28 µM (active)

O=C(c1ccccc1)C(c1ccccc1)c1ccccc1
AC50 [5]: > 56 µM (inactive)

COC(=O)C1OC2(OC1C(=O)OC)c1ccccc1-c1ccccc12 (stereo not given)
EC50 (Integrin alpha-4): 7.14 µM (active)

COc1cc(CNCCc2ccccc2)ccc1OCc1ccc(Cl)nc1
IC50 [6]: 30.1 µM (active)

O=C1Nc2ccccc2S/C1=C\C(=O)N1CCCC1
EC50 (H4): > 120 µM (not active) | EC50 [7]: 13.2 µM (active) | EC50 [8]: > 195 µM (inactive) | EC50 [9]: 9.5 µM (active) | EC50 [10]: 8.16 µM (active) | EC50 [11]: 0.264 µM (active)

O=c1c2ccc(O)cc2sn1C1CCCC1
IC50 [12]: > 100 µM (inactive) | IC50 [13]: > 100 µM (inactive) | IC50 (Phosphomannomutase 2): > 100 µM (inactive)

O=[N+]([O-])c1ccc(/C=C/C2=NN(c3ccccc3)C(c3ccco3)C2)cc1 (stereo not given)
EC50 (Troponin, cardiac muscle): 0.397 µM (active)

C=CCCCCCCCCc1nnc(SCC(=O)O)[nH]1
IC50 [14]: 0.553 µM (active)
